Consider nine molecules from PubChem BioAssay AID1919009 (Molecular Pharmacology Branch, DTP, NCI, 2023).

Where “and” joins values, the source holds several entries; their conditions need not be identical. Equal values may be shown once.

The subject of this experiment is K24384-001-R-PDC complex spheroid growth. In words: Anticancer human tumor K24384-001-R-PDC patient-derived pancreatic adenocarcinoma cell line growth inhibition [AhR]. Conditions: for viability, T/C: stronger effect = lower value; for IC50: curve of compound. The source says: Multicellular complex tumor spheroid response to aryl hydrocarbon receptor antagonists in combination with a variety of drugs and investigational agents in selected tumor cell lines
The current study was undertaken to assess response to aryl hydrocarbon receptor antagonists in combination with standard-of-care drugs and investigational agents in solid tumor complex spheroid models. Complex spheroids include a stromal component modeled by human endothelial cells (HUVEC) and fibroblasts modeled by human mesenchymal stem cells (MSCs). The concentration ranges selected for each drug and investigational agent were based upon clinically achievable concentrations if the clinical Cmax of the agent was known.
Compounds. The drugs and investigational agents: BAY 2416964 (NSC825713), GNF351 (NSC835774), CH-223191 (NSC835775), CPI-455 (NSC825282), aza-TdCyd (NSC777586), decitabine (NSC127716), belinostat (NSC758774), entinostat (NSC756642), pevonedistat (NSC761192), tazemetostat (NSC777109), talazoparib (NSC765396), olaparib (NSC753686), selinexor (NSC780203), nedisertib (M3814, NSC802822), bortezomib (NSC756655), venetoclax (NSC766270), doxorubicin (NSC123127), elimusertib (BAY189344, NSC800525), ceralasertib (AZD6738, NSC777638), TAK-243 (NSC785004), alisertib (NSC759677), etoposide (NSC141540), topotecan (NSC609699), eribulin (NSC707389), gemcitabine (NSC613327), carboplatin (NSC241240), cisplatin (NSC119875), and SN-38 (NSC673596) were obtained from the National Cancer Institute (NCI) Developmental Therapeutics Program Chemical Repository (32). The FDA-approved anticancer drug set is available from the Developmental Therapeutics Program at https://dtp.cancer.gov/organization/dscb/obtaining/available plates.htm. […] The stock solutions were prepared in dimethyl sulfoxide (DMSO, Sigma-Aldrich, St. Louis, MO, cat. D2650), except for the platinum compounds which were prepared in saline (Quality Biological, Gaithersburg, MD, cat. 114-055-101), at 800-fold the tested concentration and stored at -70 degrees C prior to their use. All drugs and investigational agents were tested over a range starting from a high concentration at or near the clinical Cmax and decreasing in half-log increments. If the clinical Cmax for an agent had not been determined, the highest concentration tested was 10 microM (Table 1).
Cell Culture. All cells were maintained in an incubator at 37 degrees C and 5% CO2 with 95% humidity. The PDC lines were cultured according to standard operating procedures established by the NCI PDMR (https://pdmr.cancer.gov). Briefly, all PDCs were thawed and cultured in Matrigel-coated flasks prepared with a working solution of 1X Ham's F-12 nutrient mix, without supplementation (Invitrogen, Waltham, MA, cat. 11765054), 100 U/mL penicillin-streptomycin (Invitrogen, cat. 15140122), and 2.5% Matrigel (Corning Inc., Corning, NY, cat. 354248) for the first three passages. All PDCs were cultured in complete DMEM/F-12 media containing advanced DMEM/F-12 (Invitrogen, cat. 12634028), 4.9% defined fetal bovine serum, heat inactivated (HyClone Laboratories Inc., Logan, UT, cat. SH30070.03HI), 389 ng/mL hydrocortisone (Sigma-Aldrich, cat. H4001), 9.7 ng/mL human EGF recombinant protein (Invitrogen, cat. PHG0313), 23.4 microg/mL adenine (Sigma-Aldrich, cat. A2786), 97.3 U/mL penicillin-streptomycin (Invitrogen, cat. 15140122), 1.9 mM L-glutamine (Invitrogen, cat. 25030081), and 9.7 microM Y-27632 dihydrochloride (Tocris Bioscience, Bristol, United Kingdom, cat. 1254). The PDCs were cultured in complete DMEM/F12 media without 10 microM Y-27632 dihydrochloride for at least two passages prior to the screen. The established cell lines NCI-H1341 and […] were cultured in DMEM/F-12, HEPES (Invitrogen, cat. 11330032), 5% defined fetal bovine serum (HyClone Laboratories Inc., cat. SH30070.03), ITS premix universal culture supplement [insulin (5 microg/mL), transferrin (5 microg/mL), and selenious acid (5 ng/mL)] […]
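For viability, T/C in this document: percent of DMSO vehicle-treated spheroid viability set as 100%.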

For `CC(C)CC(NC(=O)C(Cc1ccccc1)NC(=O)c1cnccn1)B(O)O` (stereo not drawn), the 50% inhibitory concentration (IC50) is 12 nM and 13.3 nM and 6.03 nM. Moreover, the viability, T/C (compound 0.000949 µM) was 105% and 92.1% and 95.6%. In addition, the viability, T/C (compound 0.003 µM) was 108% and 98.8% and 96.7%. Moreover, the viability, T/C (compound 0.00949 µM) was 62.6% and 70.1% and 20.1%. Besides, the viability, T/C (compound 0.03 µM) was 2.24% and 1.22% and 0.66%. For the same molecule, for the setting “compound 0.0949 µM”, the viability, T/C was 0.59% and 0.38% and 0.4%. Also, where the note is “compound 0.3 µM”, the viability, T/C was 0.39% and 0.36% and 1.49%.

Consider `CC1(C)CCC(CN2CCN(c3ccc(C(=O)NS(=O)(=O)c4ccc(NCC5CCOCC5)c([N+](=O)[O-])c4)c(Oc4cnc5[nH]ccc5c4)c3)CC2)=C(c2ccc(Cl)cc2)C1`, for which the half-maximal inhibitory concentration (IC50) was 7030 nM and > 10000 nM. Also, the viability, T/C (compound 0.0316 µM) was 104% (2×) and 108%. In addition, under “compound 0.1 µM”, the viability, T/C was 90.7% and 115% and 103%. The viability, T/C (compound 0.316 µM) was 90% and 103% and 106%. The viability, T/C (compound 1 µM) was 111% and 105% and 92.7%. Also, the viability, T/C (compound 3.16 µM) was 126% and 88.2% and 84.7%. Moreover, where the note is “compound 10 µM”, the viability, T/C is 25.9% and 60.7% and 62.5%.

As to `CC1COCCN1c1cc(-c2ccnn2C)c2ccnc(-c3ccn[nH]3)c2n1` (stereo not drawn), the IC50 is 93.2 nM and 92.7 nM and 202 nM. The viability, T/C (compound 0.00316 µM) was 93% and 95.6% and 116%. Under “compound 0.01 µM”, the viability, T/C was 92.2% and 102% and 116%. Also, the viability, T/C (compound 0.0316 µM) is 82.7% and 80.5% and 89%. Besides, the viability, T/C (compound 0.1 µM) was 47.8% and 48.9% and 65%. Also, the viability, T/C (compound 0.316 µM) was 30.6% and 29.8% and 41.7%. Also, where the note is “compound 1 µM”, the viability, T/C is 27.8% and 28.6% and 29.4%.

`CCN(c1cc(-c2ccc(CN3CCOCC3)cc2)cc(C(=O)NCc2c(C)cc(C)[nH]c2=O)c1C)C1CCOCC1`: the IC50 was over 3000 nM. Also, the viability, T/C (compound 0.00949 µM) was 108% and 104% and 103%. In addition, the viability, T/C (compound 0.03 µM) is 116% and 114% and 95.3%. The viability, T/C (compound 0.0949 µM) is 120% and 111% and 97.5%. The viability, T/C (compound 0.3 µM) was 87.1% and 95.9% and 103%. The viability, T/C (compound 0.949 µM) is 98.3% and 89% and 90%. Further, under “compound 3 µM”, the viability, T/C was 101% (2×) and 87.2%.

On to `CC[C@@]1(O)C(=O)OCc2c1cc1n(c2=O)Cc2cc3c(CN(C)C)c(O)ccc3nc2-1`, for which the IC50 is > 100 nM and 54.2 nM. Besides, the viability, T/C (compound 0.000316 µM) was 107% and 108% and 98.2%. For the same molecule, where the note is “compound 0.001 µM”, the viability, T/C was 99.3% and 117% and 102%. Further, under “compound 0.00316 µM”, the viability, T/C was 95.4% and 87.5% and 95.7%. Besides, the viability, T/C (compound 0.01 µM) was 89.1% and 80% and 82.3%. The viability, T/C (compound 0.0316 µM) is 77.6% and 75.8% and 57.6%. Moreover, the viability, T/C (compound 0.1 µM) is 53.6% and 53.5% and 41.5%.

As for `CCc1c2c(nc3ccc(O)cc13)-c1cc3c(c(=O)n1C2)COC(=O)[C@]3(O)CC`, the IC50 is 20.9 nM and 48.4 nM and 58.2 nM. The viability, T/C (compound 0.000949 µM) is 70.9% and 79.9% and 78.5%. Also, the viability, T/C (compound 0.003 µM) was 67% and 71.9% and 67.1%. Where the note is “compound 0.00949 µM”, the viability, T/C is 58.6% and 52.8% and 65%. The viability, T/C (compound 0.03 µM) was 43.8% and 54.9% and 51.5%. The viability, T/C (compound 0.0949 µM) is 38.5% and 51% and 50.3%. Further, where the note is “compound 0.3 µM”, the viability, T/C is 27.5% and 39.2% and 36.9%.

On to `COc1cc(C2c3cc4c(cc3C(OC3OC5COC(C)OC5C(O)C3O)C3COC(=O)C23)OCO4)cc(OC)c1O` (stereo not drawn), for which the half-maximal inhibitory concentration (IC50) is 1410 nM and 2650 nM and 1830 nM. Further, the viability, T/C (compound 0.0316 µM) is 106% and 96.2% and 98%. For the same molecule, the viability, T/C (compound 0.1 µM) was 86.7% and 100% and 103%. In addition, the viability, T/C (compound 0.316 µM) is 60.8% and 83.3% and 80.6%. For the same molecule, the viability, T/C (compound 1 µM) was 53.5% and 62.9% and 58.8%. In addition, the viability, T/C (compound 3.16 µM) is 48.5% and 51% and 43.7%. In addition, the viability, T/C (compound 10 µM) was 39% and 34.7% and 37.7%.

With `COc1cc(Nc2ncc3c(n2)-c2ccc(Cl)cc2C(c2c(F)cccc2OC)=NC3)ccc1C(=O)O`, the concentration for half-maximal inhibition (IC50) was over 10000 nM. Further, the viability, T/C (compound 0.0316 µM) is 97.3% and 91.9% and 85.7%. In addition, the viability, T/C (compound 0.1 µM) is 68.5% and 72.4% and 74.3%. For the same molecule, the viability, T/C (compound 0.316 µM) is 63.9% and 60% and 69.9%. The viability, T/C (compound 1 µM) was 44.3% and 55.1% and 50.6%. Also, the viability, T/C (compound 3.16 µM) was 52.4% and 54.8% and 52.6%. Besides, the viability, T/C (compound 10 µM) is 55.5% and 62.7% and 57%.

Consider `COc1cccc2c1C(=O)c1c(O)c3c(c(O)c1C2=O)CC(O)(C(=O)CO)CC3OC1CC(N)C(O)C(C)O1` (stereo not drawn), for which the IC50 is 55.5 nM and 48.3 nM and 127 nM. Also, for the setting “compound 0.0316 µM”, the viability, T/C is 55.9% and 53.8% and 60.3%. Besides, the viability, T/C (compound 0.1 µM) was 42.6% and 43.3% and 55.6%. Further, where the note is “compound 0.316 µM”, the viability, T/C is 27.5% and 27% and 27.3%. Moreover, the viability, T/C (compound 1 µM) was 7.51% and 8.21% and 8.1%. Where the note is “compound 3.16 µM”, the viability, T/C was 2.73% and 2.56% and 3.17%. Under “compound 10 µM”, the viability, T/C is 7.73% and 8.61% and 11.3%.

The term viability, T/C denotes the result in the treated group divided by that in the control group, in per cent. For orientation: IC50 means the midpoint of a concentration-inhibition curve.
